# From EP3753563A1, “ANTI-HERPESVIRUS GUANOSINE ANALOGUE FOR THE INHIBITION OF BASAL AUTOPHAGY” (Helmholtz-Zentrum für Infektionsforschung GmbH, priority 2019, dated 2020)
# Columns and labels:
# [1] = test system: A549 GFP-LC3B reporter cells; assay: High-content GFP-LC3B puncta analysis in fed or starved A549 reporter cells; type: cell-based, human
# Procedure: (§1) For the single reporter analyses of figure 1 A549 stably transduced with a retroviral GFP LC3 fusion vector were used, for the tandem reporter analyses of figure 2 NIH mouse fibroblasts stably transduced with a retroviral RFP-GFP-LC3B fusion construct were employed. Cells were seeded on 96-well plates at a density of 3.5 x 10^4 cells per well in 100 µL of their respective growth medium (DMEM for NIH3T3 and F-12K for A549, respectively). The plates were left at room temperature for one hour without moving them to guarantee an even distribution of the cells on the well bottom and then cultured over night at 37 °C and 5% CO2.
# (§2) On the next day, compounds were added at the appropriate concentration in either 100 µL of their normal fed medium or 100 µL of Hank's balanced salt solution (HBSS) to induce starvation and then cultured at 37 °C and 5% CO2 for 3 h or 1.5 h respectively. Subsequently, cells were carefully washed once with phosphate buffered saline (PBS), fixed in 4% formaldehyde for 20 min at room temperature and washed again twice with PBS. Nuclear staining was performed using 0.05% Hoechst 33342 solution in PBS for 10 min at room temperature.
# After another two times of washing in PBS, cells could be stored in PBS at 4 °C and were ready for measurement with the automatic fluorescence microscope (ImageXpress Micro XLS Widefield High-Content Imaging system). For each well, images at nine different sites were taken automatically (60x objective, magnification 600x). […]
# Duplicate samples were analyzed comprising 500-1000 cells/well, which represents a coverage of at least 2%/well. Analyses were performed using the Transfluor modul of MetaXpress 6 software (Molecular Devices) with the following settings: vesicle width 0.5 µm - 5 µm and necessary intensity above local background 2000 gray levels determined from the FITC or 500 gray levels determined from the Texas Red image. Size of nuclei 5 µm - 30 µm and necessary intensity above local background 2000 gray levels determined from the DAPI image.
# [2] = test system: 3T3 fibroblasts harbor a RFP-GFP-LC3B tandem reporter construct; assay: RFP-GFP-LC3B tandem reporter analysis of autophagic flux; type: cell-based, mouse; conditions: for mode of autophagy modulation: mouse 3T3 fibroblasts
# Procedure: as §1, §2
# After another two times of washing in PBS, cells could be stored in PBS at 4 °C and were ready for measurement with the automatic fluorescence microscope (ImageXpress Micro XLS Widefield High-Content Imaging system). For each well, images at nine different sites were taken automatically (60x objective, magnification 600x). Exposure times were 150 ms for DAPI, 1000 ms for FITC (single reporter LC3) and 150 ms for DAPI, 1000 ms for FITC, 5000 ms for Texas Red (tandem reporter analysis).
# NIH/3T3 cells stably expressing RFP-GFP-LC3 were treated to induce or inhibit autophagy (for control) and with the compound in question and taken for image acquisition (described above). Between 120-160 cells were analyzed in each quantification for vesicular, red spot numbers and colocalization of punctate red/green signals using the Gen5 software package (BioTek). Average values are shown.
# In this assay, red spot numbers correlate with total LC3 autophagic particles, yellow colocalization parallels the number of autophagosomes/phagophores.
# [3] = test system: wt and mutant ATG4D^G1288A Lagotto Romagnolo dog fibroblasts; assay: LC3 Western blot of basal and induced autophagy in dog fibroblasts (NVSD model); type: cell-based
# Procedure: Induction (starvation in Earle's Balanced Salt Solution (EBSS)) increases autophagy activity, as detected by formation of the marker LC3-II. Since autophagy consists of several steps and the last one is a degradation step, a block must be set in order to assess the proportion of the synthesis/maturation step more precisely. To this end, Bafilomycin A1 (BafA1) is added to the cells. BafA1 inhibits the fusion of autophagosomes to autolysosomes and then the degradation of the vesicle content. The comparison +/- Baf A1 is used to measure the autophagy flux. Since BafA1 inhibits the degradation of vesicle contents, LC3-II determination in WBs can be used to determine the rate of autophagosome production/maturation (corresponding to the early to middle part of the autophagy process) and the rate of autolysosomal degradation (late phase), i.e. the total degradation capacity.
# A reference sample was loaded onto each gel to compare the results of different gels. The reference sample consists of WT cells grown in full medium conditions without any treatment. Graphs show expression levels of LC3-II normalized to the loading control (tubulin) and the reference sample and represent mean + SEM.
# Fibroblasts from affected dogs and age-, breed-, and sex-matched controls were cultured in high glucose Dulbecco's Modified Eagle Medium (DMEM 41965-039 Gibco) with 10% fetal bovine serum (FBS 10500056 Gibco) and penicillin-streptomycin (PenStrep15140122 Gibco). During second or third passages, cells were seeded at equal density onto Petri dishes and additionally onto glass cover slips. […] Beta actin was used as the loading control for relative quantification of the blots (anti-beta Actin PA5-16914 Thermo Fischer Scientific). Signals were visualized by enhanced chemiluminescence and further analyzed by densitometry. […]
# HSV = conditions: read-out: EC 50 concentration for HSV inhibition; cited from earlier work
Structure (SMILES),"amount of membrane-bound GFP-LC3 compared to the control ([1]; fed cells (basal autophagy), 3 h, LC3-positive vesicle area per cell)","inhibition of induced autophagy ([1]; starved cells, 1.5 h)",reduction of the number of autolysosomes ([2]; calculated by subtraction),reduction of total autophagic particle numbers ([2]; compared to the control),mode of autophagy modulation [2],autophagosome/phagophores ([2]; yellow colocalization),"LC3-II levels of basal autophagy ([3]; mutant LR cells, 1 µM A2, two hours, with BafA1)","LC3 levels induced by starvation ([3]; starvation in EBSS, 1 µM A2 (lanes 4 and 8))","LC3 I ([3]; treated mutant cells, Western blot lanes 5 DMSO and A2)",EC50 (HSV),"reduction of LC3 fluorescence compared to the control ([1]; fed A549 cells, vesicular GFP 3h after treatment)","total LC3 containing autophagic particle numbers compared to the control ([2]; red spot numbers, 2 µM Chloroquine, 120-160 cells)"
"Nc1nc2c(ncn2COCCO)c(=O)[nH]1 [compound A2, aciclovir]",60%,does not inhibit induced autophagy,4 fold,40%,early inhibition of autophagy,slight increase,diminishes LC3-II levels of basal autophagy in mutant LR cells to level observed in wt cells,nearly unaltered,less LC3 I seems to be present,1300 nM,–,–
CC(=O)OCC(CCn1cnc2cnc(N)nc21)COC(C)=O [Famciclovir],–,–,–,–,–,–,–,–,–,–,2 -fold,–
CCN(CC)CCCC(C)Nc1ccnc2cc(Cl)ccc12 (stereo not shown) [Chloroquine],–,–,–,–,late inhibition,–,–,–,–,–,–,increased
